From patent US5851782A, “Inhibitors of ceramidase” (Duke University, priority 1996, dated 1998)

Tests used:
[1] = system: endogenous levels of sphingomyelin; assay: Endogenous sphingomyelin levels in cells; assay type: cell-based
Source text: (§1) In addition to ceramidase, inhibition of cerebroside synthase and sphingomyelin synthase or stimulation of sphingomyelinase or cerebrosidase could result in elevations in endogenous ceramide levels. Therefore, the effects of D- and L-e-MAPP were examined on these enzyme activities in vitro and in cells.

[2] = system: ceramide-activated protein phosphatase (CAPP); assay: CAPP serine/threonine phosphatase activity in vitro; assay type: biochemical; conditions: myelin basic protein phosphorylated by protein kinase A as substrate
[3] = system: HL-60 human myelocytic leukemia cells; assay: HL-60 cell proliferation (cell counting); assay type: cell-based; conditions: for effect on cell growth: HL-60 cells, 5 μM, time course
Description: (§2) Proliferation and cell cycle studies. HL-60 human myelocytic leukemia cells (obtained from the American Type Culture Collection) were grown in RPMI 1640 medium containing 10 fetal calf serum at 37° C. in 5% CO2 incubator. For proliferation and cell cycle studies, cells were resuspended at a density of 2×10^5 cells/ml in serum-free media containing insulin (5 mg/liter) and transferrin (5 mg/liter) and sodium selenite (5 μg/liter) for 2-4 h. Cells were then treated with the indicated compounds. Ethanol concentration was always maintained at less than 0.1%. Cell proliferation was determined by counting cells using a hemacytometer, cell viability was evaluated by trypan blue dye exclusion, and cell cycle analysis was determined by propidium iodide flow cytometry as described (Chao et al, J. Biol. Chem. 267:23459 (1992)).
In structure-function analysis of ceramide-mediated growth suppression using amides of phenylaminoalcohols, D- and L-erythro-MAPP were employed. In these studies, HL-60 cells were treated with 5 μM of either D-e-MAPP or L-e-MAPP, and growth was determined at the indicated time points (FIG. 2A).
(§3) Studies were conducted examining the uptake and metabolism of D- and L-MAPP. In the first set of studies, the effect of duration of exposure of HL-60 cells to D-e-MAPP on the bioactivity of the molecule was determined. D-e-MAPP added to cells could be washed off by repeated sedimentation and washing of cells. Thus, after five cycles of washing, less than 10% of D-MAPP remained associated with the cell pellet-compared to unwashed cells (FIG. 5A).

neutral sphingomyelinase = assay: Neutral sphingomyelinase activity in vitro; assay type: biochemical
Source text: as §1

β-glucosidase = molecular target: T1, β-glucosidase (Homo sapiens, UniProt P04062); assay: Glucocerebrosidase assay in vitro; assay type: biochemical
T1 sequence (P04062 40-536): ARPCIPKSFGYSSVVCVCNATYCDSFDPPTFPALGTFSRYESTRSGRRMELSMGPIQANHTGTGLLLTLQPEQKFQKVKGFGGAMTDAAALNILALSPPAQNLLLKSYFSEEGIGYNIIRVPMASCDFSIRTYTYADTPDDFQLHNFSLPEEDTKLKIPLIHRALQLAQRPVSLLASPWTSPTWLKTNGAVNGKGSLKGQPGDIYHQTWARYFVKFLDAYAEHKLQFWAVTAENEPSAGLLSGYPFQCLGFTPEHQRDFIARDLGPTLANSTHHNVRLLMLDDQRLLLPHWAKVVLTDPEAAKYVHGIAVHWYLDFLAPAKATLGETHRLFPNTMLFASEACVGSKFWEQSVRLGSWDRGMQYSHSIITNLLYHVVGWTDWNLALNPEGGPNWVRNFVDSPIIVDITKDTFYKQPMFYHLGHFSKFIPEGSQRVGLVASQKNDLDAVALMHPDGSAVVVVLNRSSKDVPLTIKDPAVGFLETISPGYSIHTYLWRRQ
Description: (§4) Glucocerebrosidase and glucocerebroside synthase assays. In vitro assays for gluccerebrosidase and for cerebroside synthase were performed as described (Abe et al, J. Biochem. (Tokyo) 11:191 (1992)).
as §1

[4] = molecular target: T2, Glucosylceramide synthase (Homo sapiens, UniProt Q16739); assay: Glucocerebroside (glucosylceramide) synthase assay in vitro; assay type: biochemical; conditions: 20 μM; for Glucosylceramide synthase activity: Control 1.009 ± 0.0424; for inhibition of cerebroside synthase activity: Table I
T2 sequence (Q16739 1-394): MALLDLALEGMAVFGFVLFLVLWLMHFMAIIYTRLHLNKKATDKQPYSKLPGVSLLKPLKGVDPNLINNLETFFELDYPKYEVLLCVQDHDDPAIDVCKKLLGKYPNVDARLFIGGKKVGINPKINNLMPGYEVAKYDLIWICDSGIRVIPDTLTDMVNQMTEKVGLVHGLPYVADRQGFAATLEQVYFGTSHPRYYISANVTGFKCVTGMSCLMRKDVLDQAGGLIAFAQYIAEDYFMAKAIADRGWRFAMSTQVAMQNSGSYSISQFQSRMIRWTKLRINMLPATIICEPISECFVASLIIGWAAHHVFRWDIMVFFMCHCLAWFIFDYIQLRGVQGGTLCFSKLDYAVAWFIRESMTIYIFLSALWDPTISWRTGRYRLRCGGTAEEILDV
Description: as §4, §1

HL-60 cells [5] = assay: Cell cycle analysis by propidium iodide flow cytometry; assay type: cell-based, human; conditions: HL-60, 5 μM, 48 h
Description: as §2

HL-60 cells [6] = assay: Uptake of tritium-labeled compounds by HL-60 cells; assay type: cell-based, human; conditions: for partitioning of label taken up into lipid organic phase: HL-60, 0-72 h, 5 to 30 μM; for uptake by cells: 24 hr
Description: Uptake and metabolism studies. HL-60 cells were grown as described and treated with ^3 H-labeled compounds at concentrations ranging from 0 to 10 μM. At the indicated time points, cell pellets were separated from media and ^3 H radioactivity was counted.
as §3
Next, the uptake of tritium-labeled D- and L-e-MAPP was examined. To this end, D- and L-e-MAPP labeled in the N-myristoyl group were synthesized and used for uptake and metabolism studies. […] At 24 hr, approximately 20% of D-e-MAPP (5 μM) and 26% of L-e-MAPP (5 μM) were taken up by cells.
The partitioning of the label taken up by cells into the lipid organic phase was evaluated next.

Compound	effect on endogenous levels of sphingomyelin [1]	activation of CAPP in vitro [2]	effect on cell growth, exposure for only 15 min ([3]; HL-60, 5 μM, back-extracted with 5 washes after 15 min)	effect on cell growth, continuous exposure ([3]; HL-60, 5 μM, compared to vehicle-treated cells)	effect on cell growth [3]	effect on activity of neutral sphingomyelinase (neutral sphingomyelinase)	effect on activity of β-glucosidase (β-glucosidase)	Glucosylceramide synthase activity [4]	inhibition of cerebroside synthase activity [4]	population of cells in G2/M phase (HL-60 cells [5]; from 10% untreated)	population of cells in S phase (HL-60 cells [5]; from 30% untreated)	population of cells in G0/G1 phase (HL-60 cells [5]; from 60% untreated)	partitioning of label taken up into lipid organic phase (HL-60 cells [6])	uptake by cells (HL-60 cells [6]; HL-60, 5 μM)	compound remaining associated with the cell pellet after washing (HL-60 cells [6]; HL-60, 5 μM, five cycles of washing, compared to unwashed cells)	effect on cell cycle progression (HL-60 cells [5])
CCCCCCCCCCCCCC(=O)N[C@H](C)[C@@H](O)c1ccccc1 [D-e-MAPP, D-erythro-2-(N-myristolyamino)-1-phenyl-1-propanol]	neither D- nor L-e-MAPP modulated the endogenous levels of sphingomyelin	neither D-e-MAPP nor L-e-MAPP activated CAPP	did not affect cell growth	dramatic growth inhibition	time dependent suppression of growth	neither D- nor L-e-MAPP modulated the activity of neutral or acidic sphingomyelinases	did not activate or modulate	0.946 ± 0.0265 nmol/h/mg protein	Neither D- nor L-e-MAPP caused inhibiton of cerebroside synthase activity	3%	24%	73%	majority of the label in D-e-MAPP or L-e-MAPP remained associated with the organic phase	approximately 20%	less than 10%	
CCCCCCCCCCCCCC(=O)N[C@@H](C)[C@H](O)c1ccccc1 [L-e-MAPP, L-erythro-2-(N-myristolyamino)-1-phenyl-1-propanol]	neither D- nor L-e-MAPP modulated the endogenous levels of sphingomyelin	neither D-e-MAPP nor L-e-MAPP activated CAPP			largely inactive	neither D- nor L-e-MAPP modulated the activity of neutral or acidic sphingomyelinases	did not activate or modulate	1.009 ± 0.0383 nmol/h/mg protein	Neither D- nor L-e-MAPP caused inhibiton of cerebroside synthase activity				majority of the label in D-e-MAPP or L-e-MAPP remained associated with the organic phase	~26%		largely without effect
